Values of other authors, collected in patent US10077293B2, “Antimicrobial peptide analogues derived from abalone (Haliotis discus) and antimicrobial pharmaceutical composition containing the same” (priority 2016, dated 2018).
“Also recorded” adds a separate entry of the source.

Columns and labels:
[1] = test system: Gram positive and Gram negative bacteria; settings: background statement; cited from earlier work
C. albicans = settings: parent peptide, background statement; cited from earlier work

hdMolluscidin (AATKPKKAGAEAAPKKPAKKQTKKKPAKKAGGKKKPKRAGAKKAKK; listed as Haliotis discus) [antimicrobial peptide consisting of 46 amino acids, purified from the gill of abalone (Haliotis discus); parent peptide]
antimicrobial activity against Gram positive and Gram negative bacteria (in words) [1]: strong antimicrobial activity
antimicrobial activity against C. albicans (in words) (C. albicans): little antimicrobial activity; also recorded: no activity
